Assay results taken from patent US6696439B1, “5-HT1F agonists” (Eli Lilly and Company, priority 1999, dated 2004).

melting point [°C] | Structure (SMILES)
119 to 120 | Cc1oc2ccc(NC(=O)c3ccccc3)nc2c1CCN(C)C
153 to 155 | CCC(=O)Nc1ccc2occ(CCN(C)C)c2n1.O=C(O)C(=O)O
136 to 138 | Cc1oc2ccc(NC(=O)c3ccc(F)cc3)nc2c1CCN(C)C.O=C(O)C(=O)O
211 to 212 | Cc1oc2ccc(NC(=O)c3cccs3)nc2c1CCN(C)C.O=C(O)C(=O)O
124 to 126 | CN(C)CCc1coc2ccc(NC(=O)c3ccc(F)cc3)nc12.O=C(O)C(=O)O
68 to 69 | CN(C)CCc1coc2ccc(NC(=O)c3cccs3)nc12.O=C(O)C(=O)O
168 to 170 | CCC(=O)Nc1ccc2oc(C)c(CCN(C)C)c2n1.O=C(O)C(=O)O
65 to 66 | CN(C)CCc1coc2ccc(NC(=O)c3ccccc3)nc12.O=C(O)C(=O)O
